IC50 data for 27 compounds are collected here from patent publication US8129417B2, “Substituted octahydrocyclopenta[C]pyrrol-4-amines as calcium channel blockers” (Abbott Laboratories, priority 2008, dated 2012).

As usually defined, the IC50 is the concentration needed to halve the response being measured.

The structures appear in SMILES notation.

Chain of human Cav2.2 (Q00975 whole entry): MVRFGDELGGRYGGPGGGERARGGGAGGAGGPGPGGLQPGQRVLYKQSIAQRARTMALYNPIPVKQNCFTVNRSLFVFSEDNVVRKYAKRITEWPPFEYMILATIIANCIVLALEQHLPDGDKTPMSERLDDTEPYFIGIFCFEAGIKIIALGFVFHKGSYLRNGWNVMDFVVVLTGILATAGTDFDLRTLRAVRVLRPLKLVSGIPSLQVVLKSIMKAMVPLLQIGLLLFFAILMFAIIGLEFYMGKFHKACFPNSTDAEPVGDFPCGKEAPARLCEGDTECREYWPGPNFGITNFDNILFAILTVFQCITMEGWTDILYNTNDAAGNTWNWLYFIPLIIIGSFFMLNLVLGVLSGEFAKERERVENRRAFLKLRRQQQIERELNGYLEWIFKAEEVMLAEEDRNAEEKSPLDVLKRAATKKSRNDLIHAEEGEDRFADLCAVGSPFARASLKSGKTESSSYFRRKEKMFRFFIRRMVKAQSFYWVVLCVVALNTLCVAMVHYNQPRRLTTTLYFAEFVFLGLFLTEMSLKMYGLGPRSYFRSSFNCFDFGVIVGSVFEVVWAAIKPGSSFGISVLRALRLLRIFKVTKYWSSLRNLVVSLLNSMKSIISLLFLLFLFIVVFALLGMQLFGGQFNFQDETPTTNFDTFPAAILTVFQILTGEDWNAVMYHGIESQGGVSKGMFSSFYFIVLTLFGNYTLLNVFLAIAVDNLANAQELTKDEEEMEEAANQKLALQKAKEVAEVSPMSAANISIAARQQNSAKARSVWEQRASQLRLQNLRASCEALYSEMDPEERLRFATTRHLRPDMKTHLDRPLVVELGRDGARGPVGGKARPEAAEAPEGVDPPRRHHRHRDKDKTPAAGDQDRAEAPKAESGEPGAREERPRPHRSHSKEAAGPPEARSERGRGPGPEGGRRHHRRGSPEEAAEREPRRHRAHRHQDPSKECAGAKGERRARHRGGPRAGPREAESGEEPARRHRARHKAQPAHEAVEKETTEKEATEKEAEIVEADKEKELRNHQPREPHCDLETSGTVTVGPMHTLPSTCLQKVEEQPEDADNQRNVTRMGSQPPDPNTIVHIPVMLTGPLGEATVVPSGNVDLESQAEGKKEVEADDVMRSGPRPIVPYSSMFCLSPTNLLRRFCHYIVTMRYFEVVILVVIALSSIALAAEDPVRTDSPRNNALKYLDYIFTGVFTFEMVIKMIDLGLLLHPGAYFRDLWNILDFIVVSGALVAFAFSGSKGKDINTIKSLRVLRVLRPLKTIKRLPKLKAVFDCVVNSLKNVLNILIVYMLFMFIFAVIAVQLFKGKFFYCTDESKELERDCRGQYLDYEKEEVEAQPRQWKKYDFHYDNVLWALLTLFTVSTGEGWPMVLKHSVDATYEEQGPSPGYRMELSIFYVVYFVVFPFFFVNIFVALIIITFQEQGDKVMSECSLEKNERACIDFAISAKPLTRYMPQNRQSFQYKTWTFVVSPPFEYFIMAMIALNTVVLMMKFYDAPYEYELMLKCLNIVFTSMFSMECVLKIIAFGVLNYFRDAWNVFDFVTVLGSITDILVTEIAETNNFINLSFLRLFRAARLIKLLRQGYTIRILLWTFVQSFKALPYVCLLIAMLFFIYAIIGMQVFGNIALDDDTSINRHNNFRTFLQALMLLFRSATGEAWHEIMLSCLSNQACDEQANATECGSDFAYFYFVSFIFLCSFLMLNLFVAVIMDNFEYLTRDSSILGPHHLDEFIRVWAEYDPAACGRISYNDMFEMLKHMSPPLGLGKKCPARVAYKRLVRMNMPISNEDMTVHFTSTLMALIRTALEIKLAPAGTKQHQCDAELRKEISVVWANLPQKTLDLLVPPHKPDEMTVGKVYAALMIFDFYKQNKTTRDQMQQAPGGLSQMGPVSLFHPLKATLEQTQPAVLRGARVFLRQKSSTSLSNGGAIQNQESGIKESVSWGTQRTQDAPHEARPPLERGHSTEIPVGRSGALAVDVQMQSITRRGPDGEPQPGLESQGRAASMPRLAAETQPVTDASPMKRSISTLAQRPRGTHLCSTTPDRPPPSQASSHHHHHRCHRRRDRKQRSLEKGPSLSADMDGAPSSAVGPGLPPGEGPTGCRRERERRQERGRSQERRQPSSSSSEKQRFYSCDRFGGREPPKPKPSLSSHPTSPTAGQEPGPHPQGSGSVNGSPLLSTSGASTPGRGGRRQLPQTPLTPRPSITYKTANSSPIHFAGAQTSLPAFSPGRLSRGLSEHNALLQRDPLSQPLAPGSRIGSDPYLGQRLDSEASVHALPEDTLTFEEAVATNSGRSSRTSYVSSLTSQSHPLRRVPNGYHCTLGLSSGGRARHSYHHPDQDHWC
Chain of human Cav2.2 (P54289 25-946 partner limits assumed): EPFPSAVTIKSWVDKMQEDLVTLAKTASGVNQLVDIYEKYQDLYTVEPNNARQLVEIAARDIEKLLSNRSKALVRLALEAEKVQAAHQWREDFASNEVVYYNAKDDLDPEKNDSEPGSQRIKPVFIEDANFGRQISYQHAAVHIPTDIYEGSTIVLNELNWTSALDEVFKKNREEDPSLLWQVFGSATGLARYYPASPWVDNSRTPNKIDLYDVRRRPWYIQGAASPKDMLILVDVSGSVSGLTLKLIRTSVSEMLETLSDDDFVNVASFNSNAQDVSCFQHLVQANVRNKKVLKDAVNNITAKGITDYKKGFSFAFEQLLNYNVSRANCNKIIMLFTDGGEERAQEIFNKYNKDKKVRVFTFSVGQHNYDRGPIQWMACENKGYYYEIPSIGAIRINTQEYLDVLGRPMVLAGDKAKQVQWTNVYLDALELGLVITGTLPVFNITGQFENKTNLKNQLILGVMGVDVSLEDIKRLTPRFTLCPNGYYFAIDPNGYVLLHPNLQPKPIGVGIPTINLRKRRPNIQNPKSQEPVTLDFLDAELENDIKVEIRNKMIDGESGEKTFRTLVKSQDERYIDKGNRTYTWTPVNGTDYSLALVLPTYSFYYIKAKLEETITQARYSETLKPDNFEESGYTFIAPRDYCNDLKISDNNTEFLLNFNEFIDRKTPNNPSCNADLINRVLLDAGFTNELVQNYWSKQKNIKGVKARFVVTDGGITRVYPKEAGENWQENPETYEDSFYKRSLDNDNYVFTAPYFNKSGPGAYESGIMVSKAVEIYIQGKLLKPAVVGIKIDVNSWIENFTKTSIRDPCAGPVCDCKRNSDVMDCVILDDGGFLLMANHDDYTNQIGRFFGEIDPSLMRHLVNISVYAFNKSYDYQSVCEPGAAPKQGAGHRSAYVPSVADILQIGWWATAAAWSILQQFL
Chain of human Cav2.2 (P54289 947-1103 partner limits assumed): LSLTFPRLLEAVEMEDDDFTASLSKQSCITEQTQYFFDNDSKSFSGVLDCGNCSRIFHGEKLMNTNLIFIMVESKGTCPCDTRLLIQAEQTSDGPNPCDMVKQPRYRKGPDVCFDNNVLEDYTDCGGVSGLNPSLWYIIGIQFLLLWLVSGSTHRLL
Chain of human Cav2.2 (P54284 whole entry partner): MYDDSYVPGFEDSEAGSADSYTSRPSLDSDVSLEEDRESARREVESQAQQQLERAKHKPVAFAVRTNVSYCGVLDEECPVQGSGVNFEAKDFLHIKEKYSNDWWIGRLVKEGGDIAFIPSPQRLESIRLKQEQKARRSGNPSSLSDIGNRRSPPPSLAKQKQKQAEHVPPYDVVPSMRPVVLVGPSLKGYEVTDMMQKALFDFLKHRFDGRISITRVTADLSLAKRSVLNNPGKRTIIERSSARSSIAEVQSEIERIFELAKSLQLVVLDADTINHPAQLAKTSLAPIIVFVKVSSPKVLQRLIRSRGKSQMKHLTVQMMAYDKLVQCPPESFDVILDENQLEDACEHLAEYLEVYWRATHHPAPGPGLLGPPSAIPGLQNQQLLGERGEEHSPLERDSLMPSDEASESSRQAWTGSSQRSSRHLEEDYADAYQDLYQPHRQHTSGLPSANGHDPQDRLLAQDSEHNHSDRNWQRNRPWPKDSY

For the assay, the target named is human Cav2.2 (Homo sapiens, UniProt Q00975). Put plainly: Assessment of calcium channel activity using FLIPR (Ca2+ influx in IMR32 cells). It counts as cell-based. The note with it: 60 minute pre-incubation with compound, 2 μM nifedipine, depolarized with 80 mM KCl. In a few lines:
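IMR32 neuroblastoma cells seeded at 1-1.2×10^5 cells/well and grown 48 h at 37 °C before FLIPR Ca2+ influx read. Percent inhibition at each concentration vs no-inhibitor activity; IC50 by non-linear sigmoidal dose-response fit.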
On to `CC(C)[C@@H](CC(=O)N[C@H]1CC[C@@H]2CN(S(=O)(=O)c3cccc(C(F)(F)F)c3)C[C@@H]21)NC(=O)OC(C)(C)C` [Example 272, tert-butyl(1R)-1-isopropyl-3-oxo-[((3aR,4S,6aS)-2-{[3-(trifluoromethyl)phenyl]sulfonyl}octahydrocyclopenta[c]pyrrol-4-yl)amino]propylcarbamate], for which the IC50 amounted to 5.14 µM. With `CC(C)[C@@H](C(=O)N[C@H]1CC[C@@H]2CN(S(=O)(=O)c3cccc(C(F)(F)F)c3)C[C@@H]21)N(C)C(=O)OC(C)(C)C` [Example 273, tert-butyl methyl((S)-3-methyl-1-oxo-1-((3aR,4S,6aS)-2-(3-(trifluoromethyl)phenylsulfonyl)octahydrocyclopenta[c]pyrrol-4-ylamino)butan-2-yl)carbamate], the IC50 amounted to 0.18 µM. Take `CC(C)(C)OC(=O)N1CCCC[C@H]1C(=O)N[C@H]1CC[C@@H]2CN(S(=O)(=O)c3cccc(C(F)(F)F)c3)C[C@@H]21` [Example 274, tert-butyl(2S)-2-{[((3aR,4S,6aS)-2-{[3-(trifluoromethyl)phenyl]sulfonyl}octahydrocyclopenta[c]pyrrol-4-yl)amino]carbonyl}piperidine-1-carboxylate]: the IC50 was 1.38 µM. Take `CC(C)(C)OC(=O)N1Cc2ccccc2C[C@H]1C(=O)N[C@H]1CC[C@@H]2CN(S(=O)(=O)c3cccc(C(F)(F)F)c3)C[C@@H]21` [Example 275, tert-butyl(3S)-3-{[((3aR,4S,6aS)-2-{[3-(trifluoromethyl)phenyl]sulfonyl}octahydrocyclopenta[c]pyrrol-4-yl)amino]carbonyl}-3,4-dihydroisoquinoline-2(1H)-carboxylate]: the IC50 is 0.92 µM. Regarding `CC(C)(C)C[C@H](NC(=O)OC(C)(C)C)C(=O)N[C@H]1CC[C@@H]2CN(S(=O)(=O)c3cccc(C(F)(F)F)c3)C[C@@H]21` [Example 276, tert-butyl(S)-4,4-dimethyl-1-oxo-1-((3aR,4S,6aS)-2-(3-(trifluoromethyl)phenylsulfonyl)octahydrocyclopenta[c]pyrrol-4-ylamino)pentan-2-ylcarbamate], the IC50 amounted to 0.38 µM.

As for `CCCC[C@@H](C(=O)N[C@H]1CC[C@@H]2CN(S(=O)(=O)c3cccc(C(F)(F)F)c3)C[C@@H]21)N(C)C(=O)OC(C)(C)C` [Example 277, tert-butyl methyl((S)-1-oxo-1-((3aR,4S,6aS)-2-(3-(trifluoromethyl)phenylsulfonyl)octahydrocyclopenta[c]pyrrol-4-ylamino)hexan-2-yl)carbamate], the IC50 was 0.72 µM. With `CCC[C@@H](C(=O)N[C@H]1CC[C@@H]2CN(S(=O)(=O)c3cccc(C(F)(F)F)c3)C[C@@H]21)N(C)C(=O)OC(C)(C)C` [Example 278, tert-butyl methyl((S)-1-oxo-1-((3aR,4S,6aS)-2-(3-(trifluoromethyl)phenylsulfonyl)octahydrocyclopenta[c]pyrrol-4-ylamino)pentan-2-yl)carbamate] the figure was 0.34 µM; with `CC(C)(C)CN[C@@H]1CC[C@H]2CN(S(=O)(=O)c3cccc(C(F)(F)F)c3)C[C@H]21` [Example 281, (3aS,4R,6aR)—N-neopentyl-2-{[3-(trifluoromethyl)phenyl]sulfonyl}octahydrocyclopenta[c]pyrrol-4-amine], 4.18 µM.

Consider `CC(C)(C)CN[C@H]1CC[C@@H]2CN(S(=O)(=O)c3cccc(C(F)(F)F)c3)C[C@@H]21` [Example 282, (3aR,4S,6aS)—N-neopentyl-2-{[3-(trifluoromethyl)phenyl]sulfonyl}octahydrocyclopenta[c]pyrrol-4-amine], for which the IC50 was found to be 5.24 µM. Turning to `CC(C)N[C@H]1CC[C@@H]2CN(S(=O)(=O)c3ccc(C(F)(F)F)cc3)C[C@@H]21` [Example 283, (3aR,4S,6aS)—N-isopropyl-2-{[4-(trifluoromethyl)phenyl]sulfonyl}octahydrocyclopenta[c]pyrrol-4-amine], the IC50 came to 8.69 µM.

For the compound `O=S(=O)(c1cccc(C(F)(F)F)c1)N1C[C@@H]2CC[C@@H](NCc3ccc(F)cc3)[C@@H]2C1` [Example 285, (3aS,4R,6aR)—N-(4-fluorobenzyl)-2-{[3-(trifluoromethyl)phenyl]sulfonyl}octahydrocyclopenta[c]pyrrol-4-amine], the IC50 came to 0.48 µM. With `O=S(=O)(c1cccc(C(F)(F)F)c1)N1C[C@H]2CC[C@H](NCc3ccc(F)cc3)[C@H]2C1` [Example 286, (3aR,4S,6aS)—N-(4-fluorobenzyl)-2-{[3-(trifluoromethyl)phenyl]sulfonyl}octahydrocyclopenta[c]pyrrol-4-amine] the figure was 0.38 µM; with `Fc1ccc(CN[C@H]2CC[C@@H]3CN(Cc4cccc(C(F)(F)F)c4)C[C@@H]32)cc1` [Example 287, (3aR,4S,6aS)—N-(4-fluorobenzyl)-2-[3-(trifluoromethyl)benzyl]octahydrocyclopenta[c]pyrrol-4-amine], 3.09 µM; with `CCN[C@H]1CC[C@@H]2CN(S(=O)(=O)c3ccc(C(F)(F)F)cc3)C[C@@H]21` [Example 288, (3aR,4S,6aS)—N-ethyl-2-{[4-(trifluoromethyl)phenyl]sulfonyl}octahydrocyclopenta[c]pyrrol-4-amine], 10.4 µM.

For the compound `CCCN[C@H]1CC[C@@H]2CN(S(=O)(=O)c3ccc(C(F)(F)F)cc3)C[C@@H]21` [Example 290, (3aR,4S,6aS)—N-propyl-2-{[4-(trifluoromethyl)phenyl]sulfonyl}octahydrocyclopenta[c]pyrrol-4-amine], the IC50 stood at 7.8 µM.

Turning to `CCCN(CCC)[C@H]1CC[C@@H]2CN(S(=O)(=O)c3ccc(C(F)(F)F)cc3)C[C@@H]21` [Example 291, (3aR,4S,6aS)—N,N-dipropyl-2-{[4-(trifluoromethyl)phenyl]sulfonyl}octahydrocyclopenta[c]pyrrol-4-amine], the IC50 amounted to 4.4 µM. As to `O=S(=O)(c1ccc(C(F)(F)F)cc1)N1C[C@H]2CC[C@H](NCC3CC3)[C@H]2C1` [Example 292, (3aR,4S,6aS)—N-(cyclopropylmethyl)-2-{[4-(trifluoromethyl)phenyl]sulfonyl}octahydrocyclopenta[c]pyrrol-4-amine], the IC50 was determined as 3.91 µM. On to `CCN[C@H]1CC[C@@H]2CN(S(=O)(=O)c3ccc(C(F)(F)F)cc3Cl)C[C@@H]21` [Example 293, (3aR,4S,6aS)-2-{[2-chloro-4-(trifluoromethyl)phenyl]sulfonyl}-N-ethyloctahydrocyclopenta[c]pyrrol-4-amine], for which the IC50 was 4.82 µM. Consider `CCN(C(=O)[C@H](CC(C)(C)C)N(C)C(=O)OC(C)(C)C)[C@H]1CC[C@@H]2CN(S(=O)(=O)c3ccc(C(F)(F)F)cc3)C[C@@H]21` [Example 296, tert-butyl(S)-1-(ethyl((3aR,4S,6aS)-2-(4-(trifluoromethyl)phenylsulfonyl)octahydrocyclopenta[c]pyrrol-4-yl)amino)-4,4-dimethyl-1-oxopentan-2-yl(methyl)carbamate], for which the IC50 is 2.14 µM. Next, `CCCN(C(=O)[C@H](CC(C)(C)C)N(C)C(=O)OC(C)(C)C)[C@H]1CC[C@@H]2CN(S(=O)(=O)c3ccc(C(F)(F)F)cc3)C[C@@H]21` [Example 297, tert-butyl(S)-4,4-dimethyl-1-oxo-1-(propyl((3aR,4S,6aS)-2-(4-(trifluoromethyl)phenylsulfonyl)octahydrocyclopenta[c]pyrrol-4-yl)amino)pentan-2-yl(methyl)carbamate]: 7.88 µM. Turning to `O=[N+]([O-])c1ccccc1S(=O)(=O)N[C@H]1CC[C@@H]2CN(S(=O)(=O)c3ccc(C(F)(F)F)cc3)C[C@@H]21` [Example 299, 2-nitro-N-((3aR,4S,6aS)-2-{[4-(trifluoromethyl)phenyl]sulfonyl}octahydrocyclopenta[c]pyrrol-4-yl)benzenesulfonamide], the IC50 is 3.68 µM. `CN([C@H]1CC[C@@H]2CN(S(=O)(=O)c3ccc(C(F)(F)F)cc3)C[C@@H]21)S(=O)(=O)c1ccccc1[N+](=O)[O-]` [Example 300, N-methyl-2-nitro-N-((3aR,4S,6aS)-2-{[4-(trifluoromethyl)phenyl]sulfonyl}octahydrocyclopenta[c]pyrrol-4-yl)benzenesulfonamide]: the IC50 was found to be 1.54 µM.

`CN(C(=O)OC(C)(C)C)[C@@H](CC(C)(C)C)C(=O)N(C)[C@H]1CC[C@@H]2CN(S(=O)(=O)c3ccc(C(F)(F)F)cc3)C[C@@H]21` [Example 302, tert-butyl(S)-4,4-dimethyl-1-(methyl((3aR,4S,6aS)-2-(4-(trifluoromethyl)phenylsulfonyl)octahydrocyclopenta[c]pyrrol-4-yl)amino)-1-oxopentan-2-yl(methyl)carbamate]: the IC50 came out at 1.14 µM. Next, `CC(C)C[C@@H](C(=O)N[C@@H]1CC[C@H]2CN(Cc3cccc(C(F)(F)F)c3)C[C@H]21)N1CCCS1(=O)=O` [Example 303, (2S)-2-(1,1-dioxidoisothiazolidin-2-yl)-4-methyl-N-{(3aS,4R,6aR)-2-[3-(trifluoromethyl)benzyl]octahydrocyclopenta[c]pyrrol-4-yl}pentanamide]: 3.11 µM; `CC(C)C(C(=O)N[C@@H]1CC[C@H]2CN(Cc3cccc(C(F)(F)F)c3)C[C@H]21)C(C)C` [Example 304, 2-isopropyl-3-methyl-N-{(3aS,4R,6aR)-2-[3-(trifluoromethyl)benzyl]octahydrocyclopenta[c]pyrrol-4-yl}butanamide]: 3.78 µM; `CC(C)C(C(=O)N[C@H]1CC[C@@H]2CN(Cc3cccc(C(F)(F)F)c3)C[C@@H]21)C(C)C` [Example 305, 2-isopropyl-3-methyl-N-{(3aR,4S,6aS)-2-[3-(trifluoromethyl)benzyl]octahydrocyclopenta[c]pyrrol-4-yl}butanamide]: 3.51 µM. For `CC(C)C[C@H](NC(=O)OC(C)(C)C)C(=O)N[C@H]1CC[C@@H]2CN(Cc3cccc(C(F)(F)F)c3)C[C@@H]21` [Example 306, tert-butyl(S)-4-methyl-1-oxo-1-((3aR,4S,6aS)-2-(3-(trifluoromethyl)benzyl)octahydrocyclopenta[c]pyrrol-4-ylamino)pentan-2-ylcarbamate], the IC50 stood at 0.5 µM.
